# Where a name gives a salt, the structure may show the parent alone.
# System: peripheral blood mononuclear cells (PBMCs) from healthy donors
# Test: IFN production by R848-activated PBMCs, quantified with twINNE luciferase reporter cell line
# Type: cell-based, human
# Details: Homo sapiens, PBMC; read-out: IC50 of anti-inflammatory activity (IFN production by activated PBMCs)
# How it was run: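 Functional IFN was quantified by luciferase output from the twINNE ISRE-reporter line after 24 h on conditioned supernatants. Those supernatants came from human PBMCs (4.10^6/mL) pre-treated with compound and then stimulated for 24 h with 5 μg/mL resiquimod. IC50s were fitted by nonlinear variable-slope regression.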
row,Structure (SMILES),IC50 [µM]
1,"c1ccc(CC2CN=C(SCCCN3CCCC3)N2)cc1 (centres unmarked) [Example 52, 5-benzyl-2-((3-(pyrrolidin-1-yl)propyl)thio)-4,5-dihydro-1H-imidazole dihydrochloride]",> 32
2,"c1ccc2c(c1)CCN=C(S[C@H]1CCNC1)N2 [Example 199, (S)-2-(pyrrolidin-3-ylthio)-4,5-dihydro-3H-benzo[d][1,3]diazepine dihydrochloride]",10 to 32
3,"CC1(C)CN=C(SCCCCN2CCCC2)NC1 [Example 179, 5,5-dimethyl-2-((4-(pyrrolidin-1-yl)butyl)thio)-1,4,5,6-tetrahydropyrimidine dihydrochloride]",> 32
4,"c1ccc(CC2CN=C(SCCN3CCCC3)N2)cc1 (centres unmarked) [Example 54, 5-benzyl-2-((2-(pyrrolidin-1-yl)ethyl)thio)-4,5-dihydro-1H-imidazole dihydrochloride]",10 to 32
5,"Fc1ccc(CC2CN3C(CSC4=NCc5ccccc5N4)=CSC3=N2)cc1 (centres unmarked) [Example 196, 3-(((1,4-dihydroquinazolin-2-yl)thio)methyl)-6-(4-fluorobenzyl)-5,6-dihydroimidazo[2,1-b]thiazole dihydrochloride]",≤ 10
6,"CC1(C)CN=C(SCC2=CSC3=Nc4cc(Cl)ccc4CN23)N1 [Example 9, 8-chloro-3-(((5,5-dimethyl-4,5-dihydro-1H-imidazol-2-yl)thio)methyl)-5H-thiazolo[2,3-b]quinazoline dihydrochloride]",10 to 32
7,"Fc1cccc2c1CN=C(SCC1=CSC3=Nc4ccc(Cl)cc4CN13)N2 [Example 80, 7-chloro-3-(((5-fluoro-1,4-dihydroquinazolin-2-yl)thio)methyl)-5H-thiazolo[2,3-b]quinazoline dihydrochloride]",≤ 10
8,"Clc1ccc2c(c1)CN1C(CSC3=N[C@@H]4CCCC[C@H]4N3)=CSC1=N2 [Example 40, 7-chloro-3-((((3aR,7aR)-3a,4,5,6,7,7a-hexahydro-1H-benzo[d]imidazol-2-yl)thio)methyl)-5H-thiazolo[2,3-b]quinazoline dihydrochloride]",≤ 10
9,"CC1(C)CN=C(SCC2=CSC3=Nc4ccc(Cl)cc4CN23)N1 [Example 2, 7-chloro-3-(((5,5-dimethyl-4,5-dihydro-1H-imidazol-2-yl)thio)methyl)-5H-thiazolo[2,3-b]quinazoline dihydrochloride]",10 to 32
10,"c1ccc2c(c1)CCN=C(SCCN1CCc3ccccc31)N2 [Example 192, 2-((2-(indolin-1-yl)ethyl)thio)-4,5-dihydro-1H-benzo[d][1,3]diazepine hydrochloride]",10 to 32
11,"C1=C(CSC2=NCc3ccccc3N2)N2Cc3ccccc3N=C2S1 [Example 12, 3-(((1,4-dihydroquinazolin-2-yl)thio)methyl)-5H-thiazolo[2,3-b]quinazoline dihydrochloride]",≤ 10
12,"CN1CCN=C1SCC1=CSC2=Nc3ccccc3CN12 [Example 36, 3-(((1-methyl-4,5-dihydro-1H-imidazol-2-yl)thio)methyl)-5H-thiazolo[2,3-b]quinazoline dihydrochloride]",≤ 10
13,"CN1CCCC1CCSC1=NCc2cc(Cl)ccc2N1 (centres unmarked) [Example 158, 6-chloro-2-((2-(1-methylpyrrolidin-2-yl)ethyl)thio)-1,4-dihydroquinazoline dihydrochloride]",≤ 10
14,"Clc1ccc2c(c1)CN=C(SCCCN1CCCC1)N2 [Example 161, 6-chloro-2-((3-(pyrrolidin-1-yl)propyl)thio)-1,4-dihydroquinazoline dihydrochloride]",≤ 10
15,"Clc1nccc2sc(CSC3=NCc4ccccc4N3)cc12 [Example 116, 4-chloro-2-(((1,4-dihydroquinazolin-2-yl)thio)methyl)thieno[3,2-c]pyridine dihydrochloride]",≤ 10
16,"C1=C(CSC2=NCc3ccccc3N2)N2C(=N[C@H]3CCCC[C@@H]32)S1 (relative stereo) [Example 13, trans-3-(((3,4-dihydroquinazolin-2-yl)thio)methyl)-4a,5,6,7,8,8a-hexahydrobenzo[4,5]imidazo[2,1-b]thiazole dihydrochloride]",≤ 10
17,"CN1CCC(SC2=NCc3ccccc3N2)C1 (centres unmarked) [Example 100, 2-((1-methylpyrrolidin-3-yl)thio)-1,4-dihydroquinazoline dihydrochloride]",≤ 10
18,"Clc1nccc2sc(CSC3=NCC(Cc4ccccc4)N3)cc12 (centres unmarked) [Example 61, 2-(((5-benzyl-4,5-dihydro-1H-imidazol-2-yl)thio)methyl)-4-chlorothieno[3,2-c]pyridine dihydrochloride]",≤ 10
19,"c1ccc(CC2CCN(CCSC3=NCc4ccccc4N3)C2)cc1 (centres unmarked) [Example 154, 2-((2-(3-benzylpyrrolidin-1-yl)ethyl)thio)-1,4-dihydroquinazoline dihydrochloride]",> 32

row,Structure (SMILES),IC50 [µM]
1,"COc1ccc(CC2(C)CN=C(SCCCCN3CCCC3)N2)cc1 (centres unmarked) [Example 169, 5-(4-methoxybenzyl)-5-methyl-2-((4-(pyrrolidin-1-yl)butyl)thio)-4,5-dihydro-1H-imidazole dihydrochloride]",> 32
2,"C1=C(CSC2=NCc3ccccc3N2)N2CC(Cc3cccs3)N=C2S1 (centres unmarked) [Example 63, 3-(((3,4-dihydroquinazolin-2-yl)thio)methyl)-6-(thiophen-2-ylmethyl)-5,6-dihydroimidazo[2,1-b]thiazole dihydrochloride]",≤ 10
3,"CC(CSC1=NCc2ccccc2N1)N1CCCC1 (centres unmarked) [Example 129, 2-((2-(pyrrolidin-1-yl)propyl)thio)-1,4-dihydroquinazoline dihydrochloride]",≤ 10
4,"CC(CCCSC1=NCc2cc(Cl)ccc2N1)N1CCCC1 (centres unmarked) [Example 162, 6-chloro-2-((4-(pyrrolidin-1-yl)pentyl)thio)-1,4-dihydroquinazoline dihydrochloride]",≤ 10
5,"CC1(C)CN2C(CSC3=NCc4cc(Cl)ccc4N3)=CSC2=N1 [Example 1, 3-(((6-chloro-1,4-dihydroquinazolin-2-yl)thio)methyl)-6,6-dimethyl-5,6-dihydroimidazo[2,1-b]thiazole dihydrochloride]",≤ 10
6,"c1ccc(COC2CCN(CCSC3=NCc4ccccc4N3)C2)cc1 (centres unmarked) [Example 143, 2-((2-(3-(benzyloxy)pyrrolidin-1-yl)ethyl)thio)-1,4-dihydroquinazoline dihydrochloride]",≤ 10
7,"OC1(CSC2=NCc3ccccc3N2)CSC2=N[C@H](c3ccccc3)[C@@H](c3ccccc3)N21 (relative stereo) [Example 17, trans-3-(((3,4-dihydroquinazolin-2-yl)thio)methyl)-5,6-diphenyl-2,3,5,6-tetrahydroimidazo[2,1-b]thiazol-3-ol dihydrochloride]",> 32
8,"C1=C(CSC2=N[C@@H](c3ccccc3)[C@H](c3ccccc3)N2)N2Cc3ccccc3CN=C2S1 [Example 24, 3-((((4S,5S)-4,5-diphenyl-4,5-dihydro-1H-imidazol-2-yl)thio)methyl)-5,10-dihydrobenzo[e]thiazolo[3,2-a][1,3]diazepine dihydrochloride]",≤ 10
9,"Fc1ccc2c(c1)NC(SCCCCN1CCCC1)=NC2 [Example 151, 7-fluoro-2-((4-(pyrrolidin-1-yl)butyl)thio)-1,4-dihydroquinazoline dihydrochloride]",≤ 10
10,"Clc1ccc2c(c1)CN1C(CSC3=NCc4ccc(Br)cc4N3)=CSC1=N2 [Example 66, 3-(((7-bromo-1,4-dihydroquinazolin-2-yl)thio)methyl)-7-chloro-5H-thiazolo[2,3-b]quinazoline dihydrochloride]",≤ 10
11,"C1=C(CSC2=NCc3ccccc3N2)N2CC(c3ccccc3)N=C2S1 (centres unmarked) [Example 120, 3-(((1,4-dihydroquinazolin-2-yl)thio)methyl)-6-phenyl-5,6-dihydroimidazo[2,1-b]thiazole dihydrochloride]",≤ 10
12,"F[C@H]1CCN(CCSC2=NCc3ccccc3N2)C1 [Example 156, (S)-2-((2-(3-fluoropyrrolidin-1-yl)ethyl)thio)-1,4-dihydroquinazoline dihydrochloride]",10 to 32
13,"COc1ccc(CC2(C)CN3C(CSC4=NCc5ccccc5N4)=CSC3=N2)cc1 (centres unmarked) [Example 46, 3-(((3,4-dihydroquinazolin-2-yl)thio)methyl)-6-(4-methoxybenzyl)-6-methyl-5,6-dihydroimidazo[2,1-b]thiazole dihydrochloride]",≤ 10
14,"Clc1ccc2c(c1)CN1C(CSC3=NCC4CCCCN34)=CSC1=N2 (centres unmarked) [Example 49, 7-chloro-3-(((1,5,6,7,8,8a-hexahydroimidazo[1,5-a]pyridin-3-yl)thio)methyl)-5H-thiazolo[2,3-b]quinazoline dihydrochloride]",≤ 10
15,"CC1(C)N=C(SCCN2CCCC2)Nc2ccccc21 [Example 78, 4,4-dimethyl-2-((2-(pyrrolidin-1-yl)ethyl)thio)-1,4-dihydroquinazoline dihydrochloride]",> 32
16,"c1ccc2c(c1)CN=C(SCCN1CCCCCC1)N2 [Example 90, 2-((2-(azepan-1-yl)ethyl)thio)-1,4-dihydroquinazoline dihydrochloride]",≤ 10
17,"Clc1cccc2c1CN=C(SCC1=CSC3=NC(Cc4ccccc4)CN13)N2 (centres unmarked) [Example 118, 6-benzyl-3-(((5-chloro-1,4-dihydroquinazolin-2-yl)thio)methyl)-5,6-dihydroimidazo[2,1-b]thiazole dihydrochloride]",≤ 10
18,"C1=C(CSC2=NCc3ccccc3N2)N2C[C@H](Cc3c[nH]c4ccccc34)N=C2S1 [Example 109, (S)-6-((1H-indol-3-yl)methyl)-3-(((1,4-dihydroquinazolin-2-yl)thio)methyl)-5,6-dihydroimidazo[2,1-b]thiazole dihydrochloride]",≤ 10
19,"Clc1cccc(C[C@H]2CN3C(CSC4=NCc5ccccc5N4)=CSC3=N2)c1 [Example 111, (S)-6-(3-chlorobenzyl)-3-(((1,4-dihydroquinazolin-2-yl)thio)methyl)-5,6-dihydroimidazo[2,1-b]thiazole dihydrochloride]",≤ 10

# — patent publication US20240018125A1, “CYCLIC ISOTHIOUREA DERIVATIVES AS CXCR4 MODULATORS” (ERMIUM THERAPEUTICS, priority 2020, published 2024)
